Measured values from patent publication US20060105974A1, “Conjugates of photosensitizers and oligonucleotides for selective photochemiotherapy” (priority 2002, published 2006).
{Ce6} = chlorin e6 photosensitizer conjugate

Experiments:
[1] = test system: target sequence (mam gene sequence); assay: Ω-sensitizer-induced photo-oxidation of DHR123 as a function of target concentration; type: biochemical; conditions: 10 J/cm^2
From the text: In order to test the possibility of using nano particles as the quenching moiety, oligonucleotides labeled with a photosensitive moiety at the 3′ terminus, where labeled at the 5′ terminus with amino modified gold nanoparticles. The mam gene sequence S′-CGGATGAAACTCTGAGCAATGTCTGCAGTTCTGTGAGCCAAAG-3′ (GeneBank accession No. AF015224) was coupled to the complementary stem sequences CCA AGC and GCT TGG at its 5′ and 3′ termini, respectively. The sequence was constructed using fully automated DNA synthesis as described in Example 1. The 3′ end contained an amino group, while the 5′ end was equipped with a six carbon spacer thiol group protected by a trityl moiety (Glen Research, Sterling, Va.) using standard methods. Following cleavage with 28% ammonium hydroxide, oligonucleotides were washed and purified as described above. The 3′ end photosensitive moiety labeled oligonucleotide was prepared and purified using the NHS ester of pheophorbide a as described in Example 1. Then the trityl protection group was removed by adding 0.15M silver nitrate solution to the labeled oligonucleotide for 1 hour. To this mixture 0.15M dithiothreitol (DTT) was added for 10 minutes. After spinning at 10000 rpm the supernatant was transferred to another tube. 400 pmol of this oligonucleotide were then suspended in 180 μl of water and immediately reacted with 6 nmol of monomaleimido gold particles (Ø=1.4 nm) (Nanoprobes) in aqueous 20 mM NaH2PO4, 150 mM NaCl, 1 mM ethylenediamine […] (EDTA) Buffer, pH 6.4, containing 10% isopropanol at 4° C. for 24 hours.
To the solution containing the Ω-sensitizer, 5′ (gold particle)-S—(CH2)6— CCAAGCCGGATGAAACTCTGAGCAATGTCTGCAGTTCTGTGAGCCAAAGCTTGG-(pheophorbide a)-3′, target and one base pair mismatch oligonucleotides were added at different concentrations. After adding appropriate quantities of DHR123 (see Example 1), the solutions were irradiated at 405 nm with electromagnetic radiation doses of 10 J/cm^2 and the fluorescence of rhodamine 123 was measured as described above as a function of the target concentration.

[2] = test system: GEO human colon cancer cells; assay: MTT cell viability assay after oligonucleotide incubation with or without irradiation; type: cell-based; conditions: one day after incubation, no irradiation
Protocol: To test the possibility of inhibiting cell growth by targeting the EGFR mRNA with Ω-sensitizers, mixed backbone oligonucleotides similar to those described in Example 1 were prepared, using methods described in Example 5. The sequences tested were:
GEO human colon cancer cells known to express approximately about 40000 functional EGFRs were purchased from ATCC (Rockville, Md., USA) and grown as described. Culture was performed in the presence of 10% fetal calf serum (FCS) and penicillin/streptomycin at 37° C. and 6% CO2 in a humid environment. For measurement purposes, the cells were subcultured in 48-well dishes (Costar 3548, Integra Biosiences, Cambridge, Mass., USA) to give 10^5 cells/well 72 hours prior to incubation with the oligonucleotides. […]
The cell viability was tested by means of an MTT assay. This technique allows quantification of cell survival after cytotoxic insult by testing the enzymatic acitivity of the mitochondria. […] The optical density of the product was quantified by its absorption at 540 nm using a 96-well ELISA plate reader (iEMS Reader MF, Labsystems, USA). […] The absorption of each residue was determined at 540 nm using the plate reader. The absorbance readings from treated cells was divided by the absorbance readings from the control cells in order to calculate the fraction of surviving cells.

sense oligonucleotides = assay: Photo-oxidation of DHR123 to RH123 by Ω-sensitizers with sense and mismatch oligonucleotides; type: biochemical; conditions: irradiation 405±5 nm; for photochemically induced oxidation of DHR123: in the presence of the sense oligonucleotide; for reduction of oxidation capacity (photo-oxidation of DHR123), one base pair mismatch versus sense oligonucleotide / reduction of oxidation capacity (photo-oxidation of DHR123), two base pair mismatches versus sense oligonucleotide: RH123 fluorescence at 529 nm; for reduction of oxidation capacity (photo-oxidation of DHR123), two base pair mismatches versus sense oligonucleotide: two base pair mismatch sense oligonucleotide
Protocol: (§1) The selective photosensitizing action of the different Ω-sensitizers described in Example 1 was tested in vitro against sense oligonucleotides, and sense oligonucleotides having one and two base mismatches, respectively. For this purpose oligonucleotides with sequences 5′-CAAAGGGAGGAAACCTAGCA-3′ (sense), 5′-CAAAGGGAGGTAACCTAGCA-3′ (sense 1 bp mismatch), and 5′-CAAAGGGAAGTAACCTAGCA-3′ (sense 2 bp mismatch) were synthesized using standard automated phosphoramidite chemistry. Oligonucleotides were dissolved in 2 ml of a solution containing 10 mM Tris-HCl and 2 mM MgCl2 to give a final concentration of 0.8 μM in a quartz cuvette. To this solution 1 ml Dihydrorhodamine 123 (DHR123) (Molecular Probes, Eugene, USA) (40 μM) dissolved in 10 mM Tris-HCl was added. DHR123 is a non-fluorescent molecule that in the presence of oxygenating species undergoes oxygenation to give the fluorescent dye rhodamine 123 having an absorption maximum at 507 nm and a fluorescence maximum at 529 nm. 1 ml of Ω-sensitizer (800 nM) containing solution was added and the final solution was stored in the dark at 37° C. for 20 minutes. Then the solution was irradiated at 405±5 nm with electromagnetic radiation from a filtered Hg-Arc lamp. The RH123 fluorescence intensity at 529 nm was measured every 60 seconds using a Perkin Elmer spectrofluorometer (Model LS50B, Perkin Elmer, Rotkreuz, CH)

sense oligonucleotide = assay: Intrinsic fluorescence emission of the Ω-sensitizer after excitation at 405 nm with sense and mismatch oligonucleotides; type: binding; conditions: excitation 405 nm; two base pair mismatch oligonucleotide versus sense oligonucleotide
Protocol: as §1, with “1 ml of Ω-sensitizer (800 nM) containing solution was added and the final solution was stored in the dark at 37° C. for 20 minutes. Then the solution was irradiated at 405±5 nm with electromagnetic radiation from a filtered Hg-Arc lamp.” left out
Furthermore, the intrinsic fluorescence of the pheophorbide a labeled Ω-sensitizer was used to further underline the selectivity of these new photochemotherapeutic agents.

Row | Substance | photochemically induced oxidation of DHR123 (sense oligonucleotides) | reduction of oxidation capacity (photo-oxidation of DHR123), one base pair mismatch versus sense oligonucleotide (sense oligonucleotides) | reduction of oxidation capacity (photo-oxidation of DHR123), two base pair mismatches versus sense oligonucleotide (sense oligonucleotides) [fold] | further results
1 | 5′ (gold particle)-S—(CH2)6— CCAAGCCGGATGAAACTCTGAGCAATGTCTGCAGTTCTGTGAGCCAAAGCTTGG-(pheophorbide a)-3′ (CCAAGCCGGATGAAACTCTGAGCAATGTCTGCAGTTCTGTGAGCCAAAGCTTGG; hairpin, 5' gold particle via hexyl thiol, 3' pheophorbide a, partial phosphorothioate, further chemistry not given here) |  |  |  | concentrations of the one base pair mismatched oligonucleotide at which photodynamic action can be observed ([1]; 405 nm): only very high concentrations; concentration of the target sequence at which the RH123 fluorescence intensity reaches its maximum ([1]; irradiated at 405 nm, RH123 fluorescence at 529 nm): about 0.5 μM; RH123 fluorescence with oligonucleotide not complementary to the TCS ([1]; one base pair mismatched oligonucleotide at about 0.5 μM, 405 nm): no fluorescence is detectable
2 | 5′ (chlorin e6) -GC*G A*CT GA*C TGC CA*A C*TA TG*A* ACA T*C*G C-(chlorin e6)3′ [b)] |  |  |  | cell viability (mitochondrial activity, MTT) in the dark [2]: only slightly reduced
3 | 5′-(pheo a)-GCGATGCTAGGTTTCCTCCCTTTGTCGC-(pheo a)-3′ (GCGATGCTAGGTTTCCTCCCTTTGTCGC; pheophorbide a at both ends, partial phosphorothioate, pattern not given here) [pheophorbide a labeled Ω-sensitizer] | most efficient | about 5 fold | ~20 | RH123 fluorescence intensities achieved, compared with the chlorin e6 labeled Ω-sensitizer (sense oligonucleotides; fluorescence at 529 nm): higher fluorescence intensities; fluorescence of the photosensitiser pheophorbide a (intrinsic fluorescence of the Ω-sensitizer) (sense oligonucleotide): significant reduction
4 | 5′-(chlorin)-GCGATGCTAGGTTTCCTCCCTTTGTCGC-(chlorin)-3′ (GCGATGCTAGGTTTCCTCCCTTTGTCGC; DNA, linkages osossooooossooooooooossssso (s phosphorothioate, o phosphodiester), 5' {Ce6}, 3' {Ce6}, methylation of C not given here) [chlorin e6 labeled Ω-sensitizer] | most efficient | about 5 fold | ~20 | 
